Our source for the IC50 values is patent US20240150365A1 (Hotspot Therapeutics, Inc., priority 2022, published 2024).

Where two headings read alike, the source gives them in different places.

One test concerns the target T1, MALT1 (Homo sapiens, UniProt Q9UDY8).
T1 construct: Avi-tagged FL MALT-1 (Pharmaron, stored at −70° C.); Avi tag
T1 sequence (Q9UDY8 1-824): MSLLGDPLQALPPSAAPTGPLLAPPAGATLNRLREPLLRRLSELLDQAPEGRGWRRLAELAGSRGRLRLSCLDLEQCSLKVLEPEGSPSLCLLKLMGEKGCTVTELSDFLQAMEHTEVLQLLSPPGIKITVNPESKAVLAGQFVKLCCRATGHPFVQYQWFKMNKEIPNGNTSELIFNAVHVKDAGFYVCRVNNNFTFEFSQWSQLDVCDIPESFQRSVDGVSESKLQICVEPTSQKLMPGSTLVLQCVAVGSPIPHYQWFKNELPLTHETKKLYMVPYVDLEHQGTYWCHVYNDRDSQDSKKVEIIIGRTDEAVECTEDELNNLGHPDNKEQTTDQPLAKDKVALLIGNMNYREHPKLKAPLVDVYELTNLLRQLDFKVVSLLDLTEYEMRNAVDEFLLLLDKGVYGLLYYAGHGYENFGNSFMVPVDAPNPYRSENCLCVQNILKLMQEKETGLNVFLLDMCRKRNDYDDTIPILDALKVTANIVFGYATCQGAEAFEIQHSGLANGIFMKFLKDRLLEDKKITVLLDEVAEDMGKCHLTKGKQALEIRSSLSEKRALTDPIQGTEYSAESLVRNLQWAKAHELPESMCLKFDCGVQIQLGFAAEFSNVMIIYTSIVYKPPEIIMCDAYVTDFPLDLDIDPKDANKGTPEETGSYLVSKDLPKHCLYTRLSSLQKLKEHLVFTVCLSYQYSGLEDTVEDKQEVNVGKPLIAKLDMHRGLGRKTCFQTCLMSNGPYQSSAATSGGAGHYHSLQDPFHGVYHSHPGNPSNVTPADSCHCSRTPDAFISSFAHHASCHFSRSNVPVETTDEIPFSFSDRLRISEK
The test can be described thus: MALT-1 Fluorogenic Peptide Cleavage Assay (MALT1 inhibition assay). The following applies: Avi-tagged FL MALT-1, Ac-LRSR-AMC peptide substrate, 30 min pre-incubation, 90 min reaction. The test is classed as biochemical. In short, it runs like this:
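Avi-tagged full-length MALT1 pre-incubated 30 min with compound (2% DMSO final), then cleavage of Ac-LRSR-AMC followed over 90 min at room temperature. AMC fluorescence read at 342/441 nm; % inhibition fitted to sigmoidal curves for IC50.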

A further test relates to NF-kB. The test can be described thus: NF-kB reporter assay in Jurkat cells stimulated with aCD3/aCD28/PMA. Format: cell-based. To be noted: Homo sapiens, Jurkat, read-out: NF-kB Reporter Assay IC50. In short, it runs like this: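 Jurkat cells (25,000/well, serum-free RPMI 1640) preincubated 1 hr at 37° C with serially diluted compound, then stimulated with aCD3/aCD28/PMA (final 5 μg/mL, 5 μg/mL, 0.03 μg/mL) for 4 hr. Reporter luminescence read with One-Glo; IC50 derived.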
Background: In a reporter assay the amount or activity of a reporter protein is the signal.

Where [1] appears, read: Jurkat cells, 1 hr compound incubation, aCD3/aCD28/PMA stimulation 4 hr, One-Glo readout.

Turning to `COc1ccc2cnn(C)c2c1NS(=O)(=O)c1ccc(-c2cnc(C)s2)nc1` [Example I-149, N-(6-Methoxy-1-Methyl-1H-Indazol-7-yl)-6-(2-Methylthiazol-5-yl)Pyridine-3-Sulfonamide], the 50% inhibitory concentration (IC50) on MALT1 and in the test on NF-kB (setting [1]) was less than 400 nM throughout.

Turning to `COc1ccc2cnn(C)c2c1NS(=O)(=O)c1ccc(-n2cc(F)cn2)nc1` [Example I-150, 6-(4-Fluoro-1H-Pyrazol-1-yl)-N-(6-Methoxy-1-Methyl-1H-Indazol-7-yl)Pyridine-3-Sulfonamide], the IC50 against MALT1 and with NF-kB (setting [1]) was less than 400 nM each time.

As to `COc1ccc2cnn(C)c2c1NS(=O)(=O)c1ccc(-n2nccc2OC)nc1` [Example I-151, N-(6-Methoxy-1-Methyl-1H-Indazol-7-yl)-6-(5-Methoxy-1H-Pyrazol-1-yl)Pyridine-3-Sulfonamide], the IC50 on MALT1 and with NF-kB (setting [1]) was less than 400 nM in each case.

As to `CCC(=O)c1cnn(-c2ccc(S(=O)(=O)Nc3cccc4cnn(C)c34)cn2)c1` [Example I-152, N-(1-Methyl-1H-Indazol-7-yl)-6-(4-Propionyl-1H-Pyrazol-1-yl)Pyridine-3-Sulfonamide], the results for the IC50 against MALT1 and in the test on NF-kB (setting [1]) were more than 2500 nM and less than 400 nM, respectively.

For `COc1ccc2cnn(C)c2c1NS(=O)(=O)c1ccc(-n2ccc(C3CC3)n2)nc1` [Example I-153, 6-(3-Cyclopropyl-1H-Pyrazol-1-yl)-N-(6-Methoxy-1-Methyl-1H-Indazol-7-yl)Pyridine-3-Sulfonamide], the 50% inhibitory concentration (IC50) at MALT1 and with NF-kB (setting [1]) was less than 400 nM in each case.

On to `Cn1ncc2cccc(NS(=O)(=O)c3ccc(-c4cc[nH]c(=O)c4)nc3)c21` [Example I-154, N-(1-Methyl-1H-Indazol-7-yl)-2′-Oxo-1′,2′-Dihydro-[2,4′-Bipyridine]-5-Sulfonamide], for which the IC50 against MALT1 and with NF-kB (setting [1]) was more than 2500 nM in each case.

`Cc1[nH]ncc1-c1ccc(S(=O)(=O)Nc2cccc3cnn(C)c23)cn1` [Example I-155, N-(1-Methyl-1H-Indazol-7-yl)-6-(5-Methyl-1H-Pyrazol-4-yl)Pyridine-3-Sulfonamide]: the IC50 (usually the midpoint of a concentration-inhibition curve) is more than 2500 nM against MALT1 and less than 400 nM with NF-kB (setting [1]).

Regarding `COc1ncc2cnn(C)c2c1NS(=O)(=O)c1ccc(-n2ccc(C(F)(F)F)n2)nc1` [Example I-156, N-(6-Methoxy-1-Methyl-1H-Pyrazolo[4,3-C]Pyridin-7-yl)-6-(3-(Trifluoromethyl)-1H-Pyrazol-1-yl)Pyridine-3-Sulfonamide], the IC50 at MALT1 and in the test on NF-kB (setting [1]) was less than 400 nM in each case.

With `COc1ccc2cnn(C)c2c1NS(=O)(=O)c1ccc(-n2cc([N+](=O)[O-])cn2)nc1` [Example I-157, N-(6-Methoxy-1-Methyl-1H-Indazol-7-yl)-6-(4-Nitro-1H-Pyrazol-1-yl)Pyridine-3-Sulfonamide], the 50% inhibitory concentration (IC50) against MALT1 and with NF-kB (setting [1]) was less than 400 nM throughout.

In the case of `Cn1c(=O)c2cccc(NS(=O)(=O)c3ccc(-n4cc(C(F)(F)F)cn4)nc3)c2n1C` [Example I-158, N-(1,2-Dimethyl-3-Oxo-2,3-Dihydro-1H-Indazol-7-yl)-6-(4-(Trifluoromethyl)-1H-Pyrazol-1-yl)Pyridine-3-Sulfonamide], the IC50 against MALT1 and in the test with NF-kB (setting [1]) was more than 2500 nM each time.

For `Cn1ncc2ccc(O)c(NS(=O)(=O)c3ccc(-n4cc(C(F)(F)F)cn4)nc3)c21` [Example I-159, N-(6-Hydroxy-1-Methyl-1H-Indazol-7-yl)-6-(4-(Trifluoromethyl)-1H-Pyrazol-1-yl)Pyridine-3-Sulfonamide], the half-inhibitory concentration (IC50) on MALT1 and in the test with NF-kB (setting [1]) was less than 400 nM in each case.

Consider `COc1ccc2cnn(C)c2c1NS(=O)(=O)c1ccc(-n2ccn(C)c2=O)nc1` [Example I-160, N-(6-Methoxy-1-Methyl-1H-Indazol-7-yl)-6-(3-Methyl-2-Oxo-2,3-Dihydro-1H-Imidazol-1-yl)Pyridine-3-Sulfonamide], for which the IC50 at MALT1 is 1000 to 2500 nM; with NF-kB (setting [1]), less than 400 nM.

In the case of `COc1ccc2cnn(C)c2c1NS(=O)(=O)c1ccc(-c2noc(C)n2)nc1` [Example I-161, N-(6-Methoxy-1-Methyl-1H-Indazol-7-yl)-6-(5-Methyl-1,2,4-Oxadiazol-3-yl)Pyridine-3-Sulfonamide], the IC50 against MALT1 lay in the range of 1000 to 2500 nM; in the test with NF-kB (setting [1]), 400 to 1000 nM.

Take `COc1ccc2cnn(C)c2c1N(C)S(=O)(=O)c1ccc(-n2cc(C(F)(F)F)cn2)nc1` [Example I-162, N-(6-Methoxy-1-Methyl-1H-Indazol-7-yl)-N-Methyl-6-(4-(Trifluoromethyl)-1H-Pyrazol-1-yl)Pyridine-3-Sulfonamide]: the 50% inhibitory concentration (IC50) at MALT1 and in the test on NF-kB (setting [1]) was less than 400 nM throughout.

As for `COc1ccc2cnn(C)c2c1N(CCN(C)C)S(=O)(=O)c1ccc(-n2cc(C(F)(F)F)cn2)nc1` [Example I-163, N-(2-(Dimethylamino)Ethyl)-N-(6-Methoxy-1-Methyl-1H-Indazol-7-yl)-6-(4-(Trifluoromethyl)-1H-Pyrazol-1-yl)Pyridine-3-Sulfonamide], the half-maximal inhibitory concentration (IC50) on MALT1 was less than 400 nM; in the test with NF-kB, 1000 to 2500 nM.

Regarding `COc1ccc2cnn(C)c2c1N(CCCN(C)C)S(=O)(=O)c1ccc(-n2cc(C(F)(F)F)cn2)nc1` [Example I-164, N-(3-(Dimethylamino)Propyl)-N-(6-Methoxy-1-Methyl-1H-Indazol-7-yl)-6-(4-(Trifluoromethyl)-1H-Pyrazol-1-yl)Pyridine-3-Sulfonamide], the concentration for half-maximal inhibition (IC50) against MALT1 is less than 400 nM; in the test on NF-kB (setting [1]), 400 to 1000 nM.

For `COc1ccc2cnn(C)c2c1N(C)S(=O)(=O)c1ccc(-c2cc(C(F)(F)F)n(C)n2)nc1` [Example I-165, N-(6-Methoxy-1-Methyl-1H-Indazol-7-yl)-N-Methyl-6-(1-Methyl-5-(Trifluoromethyl)-1H-Pyrazol-3-yl)Pyridine-3-Sulfonamide], the concentration for half-maximal inhibition (IC50) against MALT1 and in the test on NF-kB (setting [1]) was less than 400 nM each time.

For `COc1ccc2cnn(C)c2c1NS(=O)(=O)c1ccc(-c2nc(C)n[nH]2)nc1` [Example I-166, N-(6-Methoxy-1-Methyl-1H-Indazol-7-yl)-6-(3-Methyl-1H-1,2,4-Triazol-5-yl)Pyridine-3-Sulfonamide], the concentration for half-maximal inhibition (IC50) at MALT1 and in the test on NF-kB (setting [1]) was more than 2500 nM throughout.

For the compound `COc1ccc2cnn(C)c2c1NS(=O)(=O)c1ccc(-c2nc(C(F)(F)F)n[nH]2)nc1` [Example I-167, N-(6-Methoxy-1-Methyl-1H-Indazol-7-yl)-6-(3-(Trifluoromethyl)-1H-1,2,4-Triazol-5-yl)Pyridine-3-Sulfonamide], the 50% inhibitory concentration (IC50) against MALT1 was 1000 to 2500 nM; with NF-kB (setting [1]), more than 2500 nM.

For `COc1ccc2cnn(C)c2c1NS(=O)(=O)c1ccc(-c2nnc(C)n2C)nc1` [Example I-168, 6-(4,5-dimethyl-4H-1,2,4-triazol-3-yl)-N-(6-methoxy-1-methyl-1H-indazol-7-yl)pyridine-3-sulfonamide], the IC50 on MALT1 and in the test with NF-kB (setting [1]) was more than 2500 nM in each case.

Turning to `COc1ccc2cnn(C)c2c1NS(=O)(=O)c1ccc(-c2nc(C)no2)nc1` [Example I-169, N-(6-Methoxy-1-Methyl-1H-Indazol-7-yl)-6-(3-Methyl-1,2,4-Oxadiazol-5-yl)Pyridine-3-Sulfonamide], the concentration for half-maximal inhibition (IC50) at MALT1 is 1000 to 2500 nM; in the test with NF-kB (setting [1]) it was more than 2500 nM.

As for `COc1ccc2cnn(C)c2c1NS(=O)(=O)c1ccc(-c2nnc(C)o2)nc1` [Example I-170, N-(6-Methoxy-1-Methyl-1H-Indazol-7-yl)-6-(5-Methyl-1,3,4-Oxadiazol-2-yl)Pyridine-3-Sulfonamide], the IC50 on MALT1 and in the test on NF-kB (setting [1]) was more than 2500 nM each time.

With `CC(C)c1ccn(-c2ccc(S(=O)(=O)N(C)c3cccc4cnn(C)c34)cn2)n1` [Example I-171, 6-(3-isopropyl-1H-pyrazol-1-yl)-N-methyl-N-(1-methyl-1H-indazol-7-yl)pyridine-3-sulfonamide], the IC50 against MALT1 was more than 2500 nM; in the test on NF-kB (setting [1]), less than 400 nM.

Take `COc1ccc2cnn(C)c2c1N(C)S(=O)(=O)c1ccc(-n2cc(C(C)C)cn2)nc1` [Example I-172, 6-(4-isopropylpyrazol-1-yl)-N-(6-methoxy-1-methylindazol-7-yl)-N-methylpyridine-3-sulfonamide]: the 50% inhibitory concentration (IC50) is less than 400 nM against MALT1 and 400 to 1000 nM in the test with NF-kB (setting [1]).

With `COc1ccc2cnn(C)c2c1NS(=O)(=O)c1ccc(-c2csc(C)n2)nc1` [Example I-173, N-(6-methoxy-1-methylindazol-7-yl)-6-(2-methyl-1,3-thiazol-4-yl)pyridine-3-sulfonamide], the IC50 at MALT1 and in the test with NF-kB was less than 400 nM throughout.
